# Test system: colorectal cancer tumor
# Assay: Colorectal cancer tumor size and tumor tissue, FIGS. 22-24
# Format: in vivo, mouse
# Details: treated versus control
smiles,measurement,value
"CC(C)COc1cc(N(C)C)ccc1C1CC(=O)Nc2cc3c(cc21)OCO3 (stereo not shown) [FQI-234, 8-(4-(dimethylamino)-2-isobutoxyphenyl)-7,8-dihydro-[1,3]dioxolo[4,5-g]quinolin-6(5H)-one]","stained tumor tissue, microscope images","more organized, interstitium and differentiated tumor"

# Reference: patent US11458132B2, “Quinolin-2(1H)-one inhibitors of Late SV40 Factor” (TRUSTEES OF BOSTON UNIVERSITY, priority 2020, dated 2022)
